Assay results: US20140030368A1, “COMPOSITION FOR PREVENTING OR TREATING A RESPIRATORY DISEASE CONTAINING A MIXED HERBAL EXTRACT OF CNIDIUM OFFICINALE ROOT AND POLYGONI CUSPIDATI ROOT” (WHANIN PHARMACEUTICAL CO., LTD., priority 2011, published 2014)

What was measured:
[1] = Test for expectorant activity (phenol red in trachea); format: in vivo, mice
Description: Using the method of Engler et al. ([…]. Pharmacol. […] Jian-Hua Shang et al, J. Ethnopharmacology, 129, 293-298, 2010), the expectorant activity of the extract of the present invention was measured. […] Orientbio, Korea) were divided into groups, each consisting of 10 mice. […] After 30 minutes, the mice were subjected to cervical dislocation, and blood was discharged from the abdominal aorta, after which the trachea was completely excised. The isolated trachea was cold-stored in 1 ml of physiological saline.

[2] = tested on: croton oil-induced ear edema; experiment: Croton oil-induced ear edema; format: in vivo, mice; conditions: oral dose 100 mg/kg
Description: When croton oil is applied to the skin, an inflammatory reaction occurs to produce redness, a swelling and a blister on the applied surface (Archives of Pharmacal Research, 1993, 16[1], 18-24).
As experimental animals, male ICR mice (weighed 20-23 g; Orientbio, Korea) were divided into groups, each consisting of 10 mice. Each of the test samples and the comparative drug COX-2 inhibitor Celecoxib (100 mg/kg, Pfizer) was orally administered into the mice which have been fasted for one day, and after 1 hour, a solution of 3% croton oil in acetone was applied uniformly to the inner and outer sides of the right ear of each mouse to induce ear edema.

[3] = target: T1, 5-lipoxygenase (Rattus norvegicus, UniProt P12527); experiment: 5-Lipoxygenase inhibitory activity (leukotriene production in RBL-1 cells, cysteinyl leukotriene EIA); format: cell-based; conditions: RBL-1, read-out: 5-lipoxygenase inhibition rate(%)
T1 construct: rat basophilic leukemia cells (RBL-1) were stabilized using serum-free RPMI medium; endogenous in cells; host or cells: RBL-1 (rat basophilic leukemia cells)
T1 sequence (P12527 whole entry): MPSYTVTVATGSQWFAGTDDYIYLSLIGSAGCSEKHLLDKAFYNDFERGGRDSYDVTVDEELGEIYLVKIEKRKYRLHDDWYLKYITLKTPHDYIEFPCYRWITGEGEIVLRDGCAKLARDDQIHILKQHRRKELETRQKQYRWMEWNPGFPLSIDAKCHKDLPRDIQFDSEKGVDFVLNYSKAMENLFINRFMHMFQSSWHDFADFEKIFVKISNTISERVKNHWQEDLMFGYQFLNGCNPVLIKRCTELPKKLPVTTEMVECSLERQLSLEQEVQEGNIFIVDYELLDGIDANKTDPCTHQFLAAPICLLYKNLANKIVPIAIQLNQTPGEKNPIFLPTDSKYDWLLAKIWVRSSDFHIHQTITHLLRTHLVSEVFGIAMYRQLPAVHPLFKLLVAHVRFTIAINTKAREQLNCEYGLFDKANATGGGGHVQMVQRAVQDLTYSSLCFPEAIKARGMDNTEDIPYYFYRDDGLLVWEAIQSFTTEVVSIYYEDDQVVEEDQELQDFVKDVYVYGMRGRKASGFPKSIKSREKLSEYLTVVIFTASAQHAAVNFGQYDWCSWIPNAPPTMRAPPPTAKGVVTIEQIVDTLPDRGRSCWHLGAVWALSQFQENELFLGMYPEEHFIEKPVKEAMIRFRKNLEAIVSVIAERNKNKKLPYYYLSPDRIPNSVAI
Description: Specifically, rat basophilic leukemia cells (RBL-1) were stabilized using serum-free RPMI medium at 37° C., and each of the extracts and arachidonic acid as a substrate were added thereto and incubated for 15 minutes to produce leukotriene. The amount of the produced leukotriene was measured using a cysteinyl leukotriene EIA kit. As comparative drugs, the 5-lipoxygenase inhibitors zileuton and montelukast were used.

[4] = tested on: extracted bronchi of guinea pigs; experiment: Test for bronchoconstriction (in vitro), ovalbumin-induced constriction of isolated sensitized bronchi; conditions: Cavia porcellus, read-out: Bronchoconstriction inhibition rate(%)
Description: The comparative drug rolipram was used at a concentration of 20 μM, and each of the extracts was used at a concentration of 0.3 mg/ml.
Specifically, Hartely male guinea pigs (400-500 g, BGI, Korea) were sensitized by intravenous injection with 2 ml/kg of anti-ovalbumin anti-serum. At 48 hours after sensitization, the guinea pigs were sacrificed and the bronchi were extracted therefrom. Then, other tissues attached to the bronchi were removed using a tyrode solution, and each of the bronchi was cut in a ring shape containing 2-3 cartilages. Then, the cartilage portion of the ring was excised while the bronchial muscle was preserved. Then, a string was connected to both sides of each bronchus which was then suspended in an organ bath and stabilized for a predetermined time. Then, 10 μg/ml of carbachol was added to induce the maximum constriction of the bronchi which were then washed with a tyrode solution and stabilized. Next, 5 μM of indomethacin was added to each bronchus, and after 1 minute, each of the extracts was added to each bronchi, and after 5 minutes, 20 μg/ml of ovalbumin was added to induce bronchoconstriction. […] The relaxation of the bronchi was measured using a physiological activity meter connected (powerlab 8/30, AD Instrument) with a force transducer (WPI).

[5] = tested on: leukocytes in the bronchoalveolar lavage; experiment: Test for inhibition of bronchial inflammation, leukocytes in bronchoalveolar lavage of ovalbumin-sensitized mice; format: in vivo; conditions: oral 10 mg/kg b.i.d.
Description: Specifically, BALB/c female mice (6.5 weeks old, SLC, Japan) were sensitized by intraperitoneal administration of 0.2 ml of a 1:1 mixture of 10 μg of ovalbumin (OVA, Sigma) and 4 mg of aluminum hydroxide (Alum, Pierce) at days 0, 7 and 14. At 8 days and 10 days after the final sensitization, aerosol prepared from 1.0% ovalbumin using high-pressure compressed air was sprayed into the mice for 50 minutes to induce airway inflammation. As a comparative drug, 10 mg/kg of rolipram (Sigma) was used. The comparative drug and the test materials were orally administered twice (morning and evening) a day during a period ranging from 21 days to 23 days after the first sensitization. At 24 hours after the final induction of inflammation, the bronchoalveoli were laved with 1.5 ml of phosphate buffered saline (pH 7.2) to collect a bronchoalveolar lavage. The number of leukocytes in the lavage was counted using a hematology analyzer (Drew Scientific Inc., HEMAVET HV950FS, M-950HV).

[6] = tested on: citric acid-induced coughing; experiment: Test for antitussive activity (citric acid-induced coughing); format: in vivo, guinea pigs; conditions: Oral dose 50 mg/kg
Description: In order to evaluate the antitussive activity of the extract of the present invention (American Journal of Respiratory and Critical Care Medicine, 1998, 158 [1], 42-48), the extract of Example 2 was administered into guinea pigs, and then citric acid was sprayed into the guinea pig to induce coughing, after which the number of coughs was measured. Citric acid is frequently used in studies on the activity of airway sensory nerves, and the inhalation of citric acid causes bronchoconstriction, nasal stimulation, coughing, bronchial hypersensitivity and the like.
Specifically, as experimental animals, Hartely male guinea pigs (weighed 350-400 g; Orientbio, Korea) were divided into groups, each consisting of 10-12 animals. Each of the extract of Example 2 and 50 mg/kg of the comparative drug theobromine (Sigma) was administered orally into the grouped mice which have been fasted for one day. After 1 hour, 0.3M citric acid as a cough inducer was sprayed into the animals to induce coughing.

## Nc1c(Br)cc(Br)cc1CN[C@H]1CC[C@H](O)CC1 [Ambroxol, ambroxol]
[1]; Oral dose 250 mg/kg
  Expectorant activity (%): 27%

## Cc1ccc(-c2cc(C(F)(F)F)nn2-c2ccc(S(N)(=O)=O)cc2)cc1 [Celecoxib]
[2]
  Ear edema inhibition rate (%): 17%

## [Cl-].[Cl-].[Mg+2] [Magnesium chloride]
[1]; Oral dose 500 mg/kg
  Expectorant activity (%): 33%

## CC(c1cc2ccccc2s1)N(O)C(N)=O (stereo not shown) [Zileuton, zileuton]
[3]
  inhibition at 1 µM: 63%

## COc1ccc(C2CNC(=O)C2)cc1OC1CCCC1 (stereo not shown) [rolipram]
[4]
  inhibition at 20 µM: 62%
[5]
  Inhibition rate (%) of pulmonary bronchial inflammation: 22%

## Cn1cnc2c1c(=O)[nH]c(=O)n2C [theobromine]
[6]
  Cough inhibition rate (%): 36%
